Legend:
Assay type in all cases: cell-based
E. coli DH5α = test: Antibacterial activity: MIC and growth curve against E. coli DH5α in 96-well plate; settings: minimal inhibitory concentration against E. coli DH5α; 96-well plate, 5×10^5 CFU/mL, 37° C., judged after 8 h
Summary of the method: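 Log-phase DH5α (OD600 about 0.5, 37° C, 185 rpm in LB) was pelleted, resuspended in fresh LB and seeded at 5×10^5 CFU/mL with recombinant protein at 50, 25 and 12.5 μg/mL (two-fold series), in triplicate. Plates were shaken at 175 rpm, 37° C, and OD600 was read every 30 min. MIC was the lowest concentration with no growth.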

Proteus mirabilis = test: MIC against Gram-negative bacteria: Proteus mirabilis
Summary of the method: (§1)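 MIC = lowest concentration of recombinant protein showing no growth. Test proteins: purified human-derived EGF domain proteins, two-fold dilution series, three wells per concentration; inoculum 5×10^5 CFU/mL in LB; incubation 37° C with shaking at 175 rpm.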

Klebsiella pneumonia = test: MIC against Gram-negative bacteria: Klebsiella pneumonia
Summary of the method: as §1

Citrobacter diversus = test: MIC against Gram-negative bacteria: Citrobacter diversus
Summary of the method: as §1

Proteus vulgaris = test: MIC against Gram-negative bacteria: Proteus vulgaris
Summary of the method: as §1

Enterobacter cloacae = test: MIC against Gram-negative bacteria: Enterobacter cloacae
Summary of the method: as §1

Pseudomonas aeruginosa = test: MIC against Gram-negative bacteria: Pseudomonas aeruginosa
Summary of the method: as §1

Serratia marcescens = test: MIC against Gram-negative bacteria: Serratia marcescens
Summary of the method: as §1

Aeromonas hydrophila = test: MIC against Gram-negative bacteria: Aeromonas hydrophila
Summary of the method: as §1

Moraxella catarrhalis = test: MIC against Gram-negative bacteria: Moraxella catarrhalis
Summary of the method: as §1

E. coli BL21 = test: MIC against Gram-negative bacteria: E. coli BL21
Summary of the method: as §1

[1] = P. mirabilis, 10 h cultivation at 37° C., 5×10^5 CFU/mL
[2] = K. pneumonia, 10 h cultivation at 37° C., 5×10^5 CFU/mL
[3] = C. diversus, 10 h cultivation at 37° C., 5×10^5 CFU/mL
[4] = P. vulgaris, 10 h cultivation at 37° C., 5×10^5 CFU/mL
[5] = E. cloacae, 10 h cultivation at 37° C., 5×10^5 CFU/mL
[6] = P. aeruginosa, 10 h cultivation at 37° C., 5×10^5 CFU/mL
[7] = S. marcescens, 10 h cultivation at 37° C., 5×10^5 CFU/mL
[8] = A. hydrophila, 10 h cultivation at 37° C., 5×10^5 CFU/mL
[9] = M. catarrhalis, 10 h cultivation at 37° C., 5×10^5 CFU/mL
[10] = E. coli BL21, 10 h cultivation at 37° C., 5×10^5 CFU/mL
[11] = Proteus mirabilis, 5×10^5 CFU/mL, 10 h cultivation at 37° C.
[12] = Klebsiella pneumonia, 5×10^5 CFU/mL, 10 h cultivation at 37° C.
[13] = Citrobacter diversus, 5×10^5 CFU/mL, 10 h cultivation at 37° C.
[14] = Proteus vulgaris, 5×10^5 CFU/mL, 10 h cultivation at 37° C.
[15] = Enterobacter cloacae, 5×10^5 CFU/mL, 10 h cultivation at 37° C.
[16] = Pseudomonas aeruginosa, 5×10^5 CFU/mL, 10 h cultivation at 37° C.
[17] = Serratia marcescens, 5×10^5 CFU/mL, 10 h cultivation at 37° C.
[18] = Aeromonas hydrophila, 5×10^5 CFU/mL, 10 h cultivation at 37° C.
[19] = Moraxella catarrhalis, 5×10^5 CFU/mL, 10 h cultivation at 37° C.
[20] = E. coli BL21, 5×10^5 CFU/mL, 10 h cultivation at 37° C.
[21] = 96-well plate, 5×10^5 CFU/mL, 37° C., 10 h

PRT399 (DVDECRMLAHLCAHGECINSLGSFRCHCQAGYTPDATATTCL; listed as Homo sapiens)
MIC (E. coli DH5α): 12.5 µg/mL
MIC (Proteus mirabilis; [1]): 12.5 µg/mL
MIC (Klebsiella pneumonia; [2]): 50 µg/mL
MIC (Citrobacter diversus; [3]): 12.5 µg/mL
MIC (Proteus vulgaris; [4]): 50 µg/mL
MIC (Enterobacter cloacae; [5]): 12.5 µg/mL
MIC (Pseudomonas aeruginosa; [6]): 12.5 µg/mL
MIC (Serratia marcescens; [7]): 12.5 µg/mL
MIC (Aeromonas hydrophila; [8]): 50 µg/mL
MIC (Moraxella catarrhalis; [9]): 50 µg/mL
MIC (E. coli BL21; [10]): 50 µg/mL

PRT175 (CEHAPCHNGATCHERGHRYVCECARGYGGPNC; listed as Homo sapiens)
MIC (E. coli DH5α): 12.5 µg/mL
MIC (μg/mL) P. mirabilis (Proteus mirabilis; [1]): 12.5 µg/mL
MIC (μg/mL) K. pneumonia (Klebsiella pneumonia; [2]): 12.5 µg/mL
MIC (μg/mL) C. diversus (Citrobacter diversus; [3]): 12.5 µg/mL
MIC (μg/mL) P. vulgaris (Proteus vulgaris; [4]): 25 µg/mL
MIC (μg/mL) E. cloacae (Enterobacter cloacae; [5]): 12.5 µg/mL
MIC (μg/mL) P. aeruginosa (Pseudomonas aeruginosa; [6]): 12.5 µg/mL
MIC (μg/mL) S. marcescens (Serratia marcescens; [7]): 12.5 µg/mL
MIC (μg/mL) A. hydrophila (Aeromonas hydrophila; [8]): 25 µg/mL
MIC (μg/mL) M. catarrhalis (Moraxella catarrhalis; [9]): 25 µg/mL
MIC (μg/mL) E. coli BL21 (E. coli BL21; [10]): 12.5 µg/mL

PRT28 (VDACLLNPCQNQGSCRHLPGAPHGYTCDCVGGYFGHHCE; listed as Homo sapiens)
MIC (E. coli DH5α): 50 µg/mL
MIC (μg/mL) P. mirabilis (Proteus mirabilis; Proteus mirabilis, 96-well plate, 5×10^5 CFU/mL, 37° C., 10 h): 12.5 µg/mL
MIC (μg/mL) K. pneumonia (Klebsiella pneumonia; Klebsiella pneumonia, 96-well plate, 5×10^5 CFU/mL, 37° C., 10 h): 50 µg/mL
MIC (μg/mL) C. diversus (Citrobacter diversus; Citrobacter diversus, 96-well plate, 5×10^5 CFU/mL, 37° C., 10 h): 25 µg/mL
MIC (μg/mL) P. vulgaris (Proteus vulgaris; Proteus vulgaris, 96-well plate, 5×10^5 CFU/mL, 37° C., 10 h): 25 µg/mL
MIC (μg/mL) E. cloacae (Enterobacter cloacae; Enterobacter cloacae, 96-well plate, 5×10^5 CFU/mL, 37° C., 10 h): 25 µg/mL
MIC (μg/mL) P. aeruginosa (Pseudomonas aeruginosa; Pseudomonas aeruginosa, 96-well plate, 5×10^5 CFU/mL, 37° C., 10 h): 12.5 µg/mL
MIC (μg/mL) S. marcescens (Serratia marcescens; Serratia marcescens, 96-well plate, 5×10^5 CFU/mL, 37° C., 10 h): 50 µg/mL
MIC (μg/mL) A. hydrophila (Aeromonas hydrophila; Aeromonas hydrophila, 96-well plate, 5×10^5 CFU/mL, 37° C., 10 h): 12.5 µg/mL
MIC (μg/mL) M. catarrhalis (Moraxella catarrhalis; Moraxella catarrhalis, 96-well plate, 5×10^5 CFU/mL, 37° C., 10 h): 50 µg/mL
MIC (μg/mL) E. coli BL21 (E. coli BL21; E. coli BL21, 96-well plate, 5×10^5 CFU/mL, 37° C., 10 h): 25 µg/mL

PRT1353 (SDMSCPNDCHQHGRCVNGMCVCDDGYTGEDCR; listed as Homo sapiens)
MIC (E. coli DH5α): 12.5 µg/mL
MIC against P. mirabilis (Proteus mirabilis; [11]): 12.5 µg/mL
MIC against K. pneumonia (Klebsiella pneumonia; [12]): 25 µg/mL
MIC against C. diversus (Citrobacter diversus; [13]): 50 µg/mL
MIC against P. vulgaris (Proteus vulgaris; [14]): 25 µg/mL
MIC against E. cloacae (Enterobacter cloacae; [15]): 12.5 µg/mL
MIC against P. aeruginosa (Pseudomonas aeruginosa; [16]): 50 µg/mL
MIC against S. marcescens (Serratia marcescens; [17]): 50 µg/mL
MIC against A. hydrophila (Aeromonas hydrophila; [18]): 25 µg/mL
MIC against M. catarrhalis (Moraxella catarrhalis; [19]): 25 µg/mL
MIC against E. coli BL21 (E. coli BL21; [20]): 25 µg/mL

PRT876 (TAKPCLSNPCKNNGMCRDGWNRYVCDCSGTGYLGRSCE; listed as Homo sapiens)
MIC (E. coli DH5α): 12.5 µg/mL
MIC (μg/mL) P. mirabilis (Proteus mirabilis; [1]): 25 µg/mL
MIC (μg/mL) K. pneumonia (Klebsiella pneumonia; [2]): 12.5 µg/mL
MIC (μg/mL) C. diversus (Citrobacter diversus; [3]): 25 µg/mL
MIC (μg/mL) P. vulgaris (Proteus vulgaris; [4]): 25 µg/mL
MIC (μg/mL) E. cloacae (Enterobacter cloacae; [5]): 25 µg/mL
MIC (μg/mL) P. aeruginosa (Pseudomonas aeruginosa; [6]): 12.5 µg/mL
MIC (μg/mL) S. marcescens (Serratia marcescens; [7]): 25 µg/mL
MIC (μg/mL) A. hydrophila (Aeromonas hydrophila; [8]): 12.5 µg/mL
MIC (μg/mL) M. catarrhalis (Moraxella catarrhalis; [9]): 12.5 µg/mL
MIC (μg/mL) E. coli BL21 (E. coli BL21; [10]): 12.5 µg/mL

PRT471 (VCEPGCGAHGTCHEPNKCQCQEGWHGRHCN; listed as Homo sapiens)
MIC (E. coli DH5α): 100 µg/mL
MIC against P. mirabilis (Proteus mirabilis; [21]): 12.5 µg/mL
MIC against K. pneumonia (Klebsiella pneumonia; [21]): 12.5 µg/mL
MIC against C. diversus (Citrobacter diversus; [21]): 12.5 µg/mL
MIC against P. vulgaris (Proteus vulgaris; [21]): 25 µg/mL
MIC against E. cloacae (Enterobacter cloacae; [21]): 12.5 µg/mL
MIC against P. aeruginosa (Pseudomonas aeruginosa; [21]): 12.5 µg/mL
MIC against S. marcescens (Serratia marcescens; [21]): 12.5 µg/mL
MIC against A. hydrophila (Aeromonas hydrophila; [21]): 12.5 µg/mL
MIC against M. catarrhalis (Moraxella catarrhalis; [21]): 12.5 µg/mL
MIC against E. coli BL21 (E. coli BL21; [21]): 12.5 µg/mL

PRT674 (DVDECQDPAACRPGRCVNLPGSYRCECRPPWVPGPSGRDCQ; listed as Homo sapiens)
MIC (E. coli DH5α): 12.5 µg/mL
MIC P. mirabilis (Proteus mirabilis; [21]): 12.5 µg/mL
MIC K. pneumonia (Klebsiella pneumonia; [21]): 25 µg/mL
MIC C. diversus (Citrobacter diversus; [21]): 25 µg/mL
MIC P. vulgaris (Proteus vulgaris; [21]): 50 µg/mL
MIC E. cloacae (Enterobacter cloacae; [21]): 12.5 µg/mL
MIC P. aeruginosa (Pseudomonas aeruginosa; [21]): 50 µg/mL
MIC S. marcescens (Serratia marcescens; [21]): 25 µg/mL
MIC A. hydrophila (Aeromonas hydrophila; [21]): 50 µg/mL
MIC M. catarrhalis (Moraxella catarrhalis; [21]): 25 µg/mL
MIC E. coli BL21 (E. coli BL21; [21]): 25 µg/mL

PRT516 (CNCSGLGSKNEDPCFGPCICKENVEGGDCSRCKSGFFNLQEDNWKGCDE; listed as Homo sapiens)
MIC (E. coli DH5α): 12.5 µg/mL
MIC against P. mirabilis (Proteus mirabilis; [21]): 12.5 µg/mL
MIC against K. pneumonia (Klebsiella pneumonia; [21]): 50 µg/mL
MIC against C. diversus (Citrobacter diversus; [21]): 50 µg/mL
MIC against P. vulgaris (Proteus vulgaris; [21]): 25 µg/mL
MIC against E. cloacae (Enterobacter cloacae; [21]): 12.5 µg/mL
MIC against P. aeruginosa (Pseudomonas aeruginosa; [21]): 12.5 µg/mL
MIC against S. marcescens (Serratia marcescens; [21]): 50 µg/mL
MIC against A. hydrophila (Aeromonas hydrophila; [21]): 25 µg/mL
MIC against M. catarrhalis (Moraxella catarrhalis; [21]): 25 µg/mL
MIC against E. coli BL21 (E. coli BL21; [21]): 50 µg/mL

PRT912 (DVNECLSNPCDARGTQNCVQRVNDFHCECRAGHTGRRCE; listed as Homo sapiens)
MIC (E. coli DH5α): 25 µg/mL
MIC (Proteus mirabilis; P. mirabilis, 10 h cultivation at 37° C.): 50 µg/mL
MIC (Klebsiella pneumonia; K. pneumonia, 10 h cultivation at 37° C.): 50 µg/mL
MIC (Citrobacter diversus; C. diversus, 10 h cultivation at 37° C.): 50 µg/mL
MIC (Proteus vulgaris; P. vulgaris, 10 h cultivation at 37° C.): 100 µg/mL
MIC (Enterobacter cloacae; E. cloacae, 10 h cultivation at 37° C.): 25 µg/mL
MIC (Pseudomonas aeruginosa; P. aeruginosa, 10 h cultivation at 37° C.): 25 µg/mL
MIC (Serratia marcescens; S. marcescens, 10 h cultivation at 37° C.): 50 µg/mL
MIC (Aeromonas hydrophila; A. hydrophila, 10 h cultivation at 37° C.): 100 µg/mL
MIC (Moraxella catarrhalis; M. catarrhalis, 10 h cultivation at 37° C.): 12.5 µg/mL
MIC (E. coli BL21; E. coli BL21, 10 h cultivation at 37° C.): 12.5 µg/mL

PRT1484 (DTDECLGTPCQQRCKNSIGSYKCSCRTGFHLHGNRHSCV; listed as Homo sapiens)
MIC (E. coli DH5α): 50 µg/mL
MIC against P. mirabilis (Proteus mirabilis; [11]): 50 µg/mL
MIC against K. pneumonia (Klebsiella pneumonia; [12]): 12.5 µg/mL
MIC against C. diversus (Citrobacter diversus; [13]): 25 µg/mL
MIC against P. vulgaris (Proteus vulgaris; [14]): 12.5 µg/mL
MIC against E. cloacae (Enterobacter cloacae; [15]): 25 µg/mL
MIC against P. aeruginosa (Pseudomonas aeruginosa; [16]): 50 µg/mL
MIC against S. marcescens (Serratia marcescens; [17]): 50 µg/mL
MIC against A. hydrophila (Aeromonas hydrophila; [18]): 50 µg/mL
MIC against M. catarrhalis (Moraxella catarrhalis; [19]): 12.5 µg/mL
MIC against E. coli BL21 (E. coli BL21; [20]): 12.5 µg/mL
